The values below come from ChEMBL document CHEMBL1201862, “PubChem BioAssay data set” (2004).

The target of test [1] is cAMP-dependent protein kinase catalytic subunit alpha (Homo sapiens, UniProt P17612). Type of test: functional.
Test [2] has as its target Proto-oncogene tyrosine-protein kinase Src (Homo sapiens, UniProt P12931). Format: functional.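 Further: SRC entry within a kinome-wide kinase profiling panel.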
The target of test [3] is Vascular endothelial growth factor receptor 1 (Homo sapiens, UniProt P17948). Format: functional.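 Further: measured within a kinome-wide profiling panel, FLT1 as the panel member.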
Sequence of Vascular endothelial growth factor receptor 1 (P17948 whole entry, the tested form may be a part): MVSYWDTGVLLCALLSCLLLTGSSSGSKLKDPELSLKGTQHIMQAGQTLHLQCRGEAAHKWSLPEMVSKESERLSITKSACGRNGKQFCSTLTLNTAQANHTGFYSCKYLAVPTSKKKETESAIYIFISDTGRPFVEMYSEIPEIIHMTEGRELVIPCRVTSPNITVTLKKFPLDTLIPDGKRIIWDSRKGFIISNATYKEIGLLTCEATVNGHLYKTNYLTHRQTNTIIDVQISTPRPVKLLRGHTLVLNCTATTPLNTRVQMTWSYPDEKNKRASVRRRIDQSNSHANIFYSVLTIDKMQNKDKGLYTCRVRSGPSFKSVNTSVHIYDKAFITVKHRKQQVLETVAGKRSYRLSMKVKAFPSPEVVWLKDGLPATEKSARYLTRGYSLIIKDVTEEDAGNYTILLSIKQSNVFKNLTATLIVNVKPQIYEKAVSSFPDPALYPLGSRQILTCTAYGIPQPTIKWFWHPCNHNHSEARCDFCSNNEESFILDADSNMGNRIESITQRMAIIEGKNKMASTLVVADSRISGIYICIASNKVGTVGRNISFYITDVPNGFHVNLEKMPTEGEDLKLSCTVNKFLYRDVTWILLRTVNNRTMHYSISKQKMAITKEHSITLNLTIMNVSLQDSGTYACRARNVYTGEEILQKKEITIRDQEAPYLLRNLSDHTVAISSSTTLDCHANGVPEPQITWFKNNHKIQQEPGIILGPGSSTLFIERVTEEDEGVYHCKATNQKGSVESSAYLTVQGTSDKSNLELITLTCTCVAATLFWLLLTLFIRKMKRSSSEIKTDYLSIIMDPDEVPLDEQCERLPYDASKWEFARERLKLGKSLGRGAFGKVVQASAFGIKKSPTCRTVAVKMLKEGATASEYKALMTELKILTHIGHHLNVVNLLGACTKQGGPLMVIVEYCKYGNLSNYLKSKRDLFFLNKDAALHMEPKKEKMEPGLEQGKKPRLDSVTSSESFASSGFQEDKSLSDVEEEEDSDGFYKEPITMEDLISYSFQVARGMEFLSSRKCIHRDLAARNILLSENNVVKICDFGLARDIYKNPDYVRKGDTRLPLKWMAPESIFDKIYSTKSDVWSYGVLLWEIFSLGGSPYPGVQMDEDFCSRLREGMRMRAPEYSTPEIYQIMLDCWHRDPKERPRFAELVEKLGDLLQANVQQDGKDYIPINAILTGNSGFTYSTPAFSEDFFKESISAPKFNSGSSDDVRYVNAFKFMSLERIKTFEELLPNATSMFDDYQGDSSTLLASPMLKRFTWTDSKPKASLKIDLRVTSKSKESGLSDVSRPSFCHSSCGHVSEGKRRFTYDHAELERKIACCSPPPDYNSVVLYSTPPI
Another test concerns the target LIM domain kinase 1 (Homo sapiens, UniProt P53667). Briefly: Navigating the Kinome. Panel member name: LIMK1. Format: functional.
The target of test [4] is Tyrosine-protein kinase Lyn (Homo sapiens, UniProt P07948). Type of test: functional.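 Further: lyn as one member of a kinase panel.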
Sequence of Tyrosine-protein kinase Lyn (P07948 whole entry): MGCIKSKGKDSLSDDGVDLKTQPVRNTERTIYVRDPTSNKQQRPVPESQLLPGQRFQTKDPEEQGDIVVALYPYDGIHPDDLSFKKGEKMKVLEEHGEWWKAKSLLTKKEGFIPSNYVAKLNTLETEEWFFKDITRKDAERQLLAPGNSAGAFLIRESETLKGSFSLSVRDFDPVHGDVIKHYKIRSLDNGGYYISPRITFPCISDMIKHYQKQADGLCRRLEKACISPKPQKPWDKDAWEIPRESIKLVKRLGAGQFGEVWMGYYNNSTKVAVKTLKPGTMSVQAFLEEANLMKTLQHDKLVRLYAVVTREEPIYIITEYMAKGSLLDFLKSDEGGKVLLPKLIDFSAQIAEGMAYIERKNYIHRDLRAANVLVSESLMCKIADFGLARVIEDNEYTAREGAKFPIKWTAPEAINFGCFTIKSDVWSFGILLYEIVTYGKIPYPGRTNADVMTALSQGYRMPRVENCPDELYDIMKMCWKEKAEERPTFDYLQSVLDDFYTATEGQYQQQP
The target of test [5] is Rho-associated protein kinase 1 (Homo sapiens, UniProt Q13464). Format: functional.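 Further: measured within a broad kinome-wide panel profiling many kinases.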
The target in test [6] is Serine/threonine-protein kinase MRCK alpha (Homo sapiens, UniProt Q5VT25). Format: functional.
In test [7] the target is Homeodomain-interacting protein kinase 4 (Homo sapiens, UniProt Q8NE63). Type of test: functional.
The target of the next test is Insulin receptor (Homo sapiens, UniProt P06213). Type of test: functional.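 Further: insulin receptor kinase tested as one member of a kinome-wide kinase panel.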
Test [8] concerns the target cAMP-dependent protein kinase catalytic subunit PRKX (Homo sapiens, UniProt P51817). Type of test: functional.
The target in test [9] is Tyrosine-protein kinase ITK/TSK (Homo sapiens, UniProt Q08881). Type of test: functional.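 Further: affinity for ITK measured as one member of a broad kinase panel profiling binding across the kinome.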
Test [10] has as its target Serine/threonine-protein kinase TAO1 (Homo sapiens, UniProt Q7L7X3). Format: functional.
Test [11] deals with Glycogen synthase kinase-3 beta (Homo sapiens, UniProt P49841). Format: functional.
Sequence of Glycogen synthase kinase-3 beta (P49841 whole entry): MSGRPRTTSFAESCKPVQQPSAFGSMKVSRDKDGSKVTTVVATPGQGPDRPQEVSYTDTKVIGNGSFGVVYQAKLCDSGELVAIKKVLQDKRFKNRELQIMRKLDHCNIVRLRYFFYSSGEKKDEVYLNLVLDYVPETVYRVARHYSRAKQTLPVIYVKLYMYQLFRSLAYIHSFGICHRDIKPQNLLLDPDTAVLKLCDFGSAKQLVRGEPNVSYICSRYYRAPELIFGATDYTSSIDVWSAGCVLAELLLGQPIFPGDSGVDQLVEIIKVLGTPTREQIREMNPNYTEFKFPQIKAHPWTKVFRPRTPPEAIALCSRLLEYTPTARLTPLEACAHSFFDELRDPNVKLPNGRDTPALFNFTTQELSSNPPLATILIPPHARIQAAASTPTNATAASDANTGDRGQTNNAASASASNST
The target of test [12] is Dual specificity protein phosphatase 3 (Homo sapiens, UniProt P51452). Briefly: VHR1 phosphatase inhibitors, primary screen, biochemical, absorbance, uHTS (AID 1654).
Sequence of Dual specificity protein phosphatase 3 (P51452 whole entry): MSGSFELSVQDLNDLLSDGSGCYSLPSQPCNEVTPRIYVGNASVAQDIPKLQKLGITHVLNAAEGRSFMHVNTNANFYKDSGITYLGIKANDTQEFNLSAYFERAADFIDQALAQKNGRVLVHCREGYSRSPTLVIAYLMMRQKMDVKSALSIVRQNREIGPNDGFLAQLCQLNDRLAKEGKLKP
The nature of test [13]: HepG2 cell cytotoxicity, dose response, cytotoxicity control, plate reader, cherry-pick, antagonist series (AID 743416). Format: functional, cell-based.
The target in test [14] is 1-phosphatidylinositol 4,5-bisphosphate phosphodiesterase beta-3 (Homo sapiens, UniProt Q01970). Kind of test: Fluorescence-based biochemical high throughput dose response assay to identify inhibitors of phospholipase C isozymes (PLC-B3).
Sequence of 1-phosphatidylinositol 4,5-bisphosphate phosphodiesterase beta-3 (Q01970 whole entry): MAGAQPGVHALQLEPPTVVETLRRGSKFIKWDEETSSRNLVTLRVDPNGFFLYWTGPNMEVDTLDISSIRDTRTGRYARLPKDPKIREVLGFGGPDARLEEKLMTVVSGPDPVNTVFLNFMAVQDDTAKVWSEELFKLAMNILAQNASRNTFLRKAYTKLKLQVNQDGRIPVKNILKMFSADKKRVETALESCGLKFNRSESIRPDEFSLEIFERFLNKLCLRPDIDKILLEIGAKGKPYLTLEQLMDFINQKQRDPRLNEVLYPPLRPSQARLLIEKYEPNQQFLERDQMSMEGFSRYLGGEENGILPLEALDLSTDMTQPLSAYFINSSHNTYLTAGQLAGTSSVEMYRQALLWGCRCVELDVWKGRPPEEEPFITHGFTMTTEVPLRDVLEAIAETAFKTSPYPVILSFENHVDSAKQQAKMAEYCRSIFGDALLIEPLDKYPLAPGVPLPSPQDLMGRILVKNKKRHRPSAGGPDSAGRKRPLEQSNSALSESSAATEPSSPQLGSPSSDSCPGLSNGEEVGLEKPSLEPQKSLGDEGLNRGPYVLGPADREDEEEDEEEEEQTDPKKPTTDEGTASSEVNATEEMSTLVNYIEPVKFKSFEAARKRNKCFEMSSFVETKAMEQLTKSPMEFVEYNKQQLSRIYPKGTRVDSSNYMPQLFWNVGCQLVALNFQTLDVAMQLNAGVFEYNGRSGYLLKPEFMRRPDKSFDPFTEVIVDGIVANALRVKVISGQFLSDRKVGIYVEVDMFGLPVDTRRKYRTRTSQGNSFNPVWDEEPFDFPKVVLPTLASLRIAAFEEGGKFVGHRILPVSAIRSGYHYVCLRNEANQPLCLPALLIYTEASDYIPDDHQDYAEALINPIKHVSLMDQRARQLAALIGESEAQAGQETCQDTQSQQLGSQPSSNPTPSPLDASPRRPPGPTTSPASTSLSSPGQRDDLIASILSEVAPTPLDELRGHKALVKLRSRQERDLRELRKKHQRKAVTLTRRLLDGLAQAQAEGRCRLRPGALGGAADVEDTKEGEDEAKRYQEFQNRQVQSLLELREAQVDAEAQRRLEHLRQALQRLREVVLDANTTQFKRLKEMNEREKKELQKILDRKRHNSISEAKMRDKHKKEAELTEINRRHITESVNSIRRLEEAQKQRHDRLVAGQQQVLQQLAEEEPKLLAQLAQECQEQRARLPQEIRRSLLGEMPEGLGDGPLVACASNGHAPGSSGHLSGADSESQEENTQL
Test [15] deals with T1, Tyrosine-protein phosphatase non-receptor type 22 (Homo sapiens, UniProt Q9Y2R2).
T1 sequence (Q9Y2R2 whole entry): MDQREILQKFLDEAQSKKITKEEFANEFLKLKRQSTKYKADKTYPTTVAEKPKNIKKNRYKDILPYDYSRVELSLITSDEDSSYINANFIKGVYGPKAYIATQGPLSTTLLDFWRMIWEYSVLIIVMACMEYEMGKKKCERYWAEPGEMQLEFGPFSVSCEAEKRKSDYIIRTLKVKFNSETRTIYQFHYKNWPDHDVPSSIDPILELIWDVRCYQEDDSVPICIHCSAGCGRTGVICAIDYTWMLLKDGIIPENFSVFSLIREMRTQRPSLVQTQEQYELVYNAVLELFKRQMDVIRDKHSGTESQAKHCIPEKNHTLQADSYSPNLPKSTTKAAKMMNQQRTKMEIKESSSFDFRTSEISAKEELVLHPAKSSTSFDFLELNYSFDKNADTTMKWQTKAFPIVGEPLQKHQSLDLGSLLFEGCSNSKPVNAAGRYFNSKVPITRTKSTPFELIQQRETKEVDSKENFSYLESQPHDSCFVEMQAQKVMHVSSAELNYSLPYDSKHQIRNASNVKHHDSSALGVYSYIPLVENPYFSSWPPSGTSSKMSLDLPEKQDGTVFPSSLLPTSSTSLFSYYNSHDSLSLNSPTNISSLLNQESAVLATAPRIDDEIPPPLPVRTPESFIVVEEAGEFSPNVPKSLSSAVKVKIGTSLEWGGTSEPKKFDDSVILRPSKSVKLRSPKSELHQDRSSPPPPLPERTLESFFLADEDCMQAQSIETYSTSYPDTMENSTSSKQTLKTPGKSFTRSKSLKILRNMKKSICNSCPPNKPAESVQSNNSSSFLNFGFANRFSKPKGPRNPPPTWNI
Type of test: functional.

For test [16], the target named is Protein disulfide-isomerase A6 (Homo sapiens, UniProt Q15084). Kind of test: inhibitors of ERp5-mediated insulin aggregation, dose response, biochemical, turbidity, absorbance 650 nm, cherry-picked samples (AID 720566).
Test [17] concerns the target T2, Sentrin-specific protease 6 (Homo sapiens, UniProt Q9GZR1).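 Further: Luminescence-based dose-response confirmatory assay of SENP6 inhibition, following up an ultra-high-throughput screen.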
T2 sequence (Q9GZR1 whole entry): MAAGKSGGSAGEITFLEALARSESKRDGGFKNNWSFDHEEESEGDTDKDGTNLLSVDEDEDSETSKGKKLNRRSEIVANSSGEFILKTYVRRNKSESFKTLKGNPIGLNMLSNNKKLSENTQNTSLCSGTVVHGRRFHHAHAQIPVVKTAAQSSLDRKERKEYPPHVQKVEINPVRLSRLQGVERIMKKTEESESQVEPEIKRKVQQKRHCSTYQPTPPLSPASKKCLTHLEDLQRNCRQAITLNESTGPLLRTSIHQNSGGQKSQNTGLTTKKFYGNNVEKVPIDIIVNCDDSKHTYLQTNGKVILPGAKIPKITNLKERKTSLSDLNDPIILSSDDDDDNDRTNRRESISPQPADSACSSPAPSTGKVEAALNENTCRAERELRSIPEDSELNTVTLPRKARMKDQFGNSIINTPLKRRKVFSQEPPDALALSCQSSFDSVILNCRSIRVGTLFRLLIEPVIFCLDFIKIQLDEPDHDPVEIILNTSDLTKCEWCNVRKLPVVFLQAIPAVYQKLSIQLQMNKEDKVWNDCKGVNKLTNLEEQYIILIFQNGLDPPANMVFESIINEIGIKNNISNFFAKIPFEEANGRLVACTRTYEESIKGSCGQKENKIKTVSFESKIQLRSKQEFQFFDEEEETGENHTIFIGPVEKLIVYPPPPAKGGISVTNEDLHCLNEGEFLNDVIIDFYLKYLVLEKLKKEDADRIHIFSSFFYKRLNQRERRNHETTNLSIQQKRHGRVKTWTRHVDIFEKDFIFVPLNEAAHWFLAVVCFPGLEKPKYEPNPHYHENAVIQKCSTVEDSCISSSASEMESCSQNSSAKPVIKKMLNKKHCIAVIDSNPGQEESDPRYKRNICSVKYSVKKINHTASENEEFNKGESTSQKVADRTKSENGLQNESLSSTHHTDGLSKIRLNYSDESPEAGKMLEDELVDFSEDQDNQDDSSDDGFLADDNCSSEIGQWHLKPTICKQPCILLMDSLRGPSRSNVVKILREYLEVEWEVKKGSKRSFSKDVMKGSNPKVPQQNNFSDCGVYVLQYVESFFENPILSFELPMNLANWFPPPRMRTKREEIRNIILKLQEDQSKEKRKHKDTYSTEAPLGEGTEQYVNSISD
Format: functional.

Active and inactive are the calls of the source. Some results are limits rather than exact numbers.

Sequence of LIM domain kinase 1 (P53667 whole entry, the tested form may be a part): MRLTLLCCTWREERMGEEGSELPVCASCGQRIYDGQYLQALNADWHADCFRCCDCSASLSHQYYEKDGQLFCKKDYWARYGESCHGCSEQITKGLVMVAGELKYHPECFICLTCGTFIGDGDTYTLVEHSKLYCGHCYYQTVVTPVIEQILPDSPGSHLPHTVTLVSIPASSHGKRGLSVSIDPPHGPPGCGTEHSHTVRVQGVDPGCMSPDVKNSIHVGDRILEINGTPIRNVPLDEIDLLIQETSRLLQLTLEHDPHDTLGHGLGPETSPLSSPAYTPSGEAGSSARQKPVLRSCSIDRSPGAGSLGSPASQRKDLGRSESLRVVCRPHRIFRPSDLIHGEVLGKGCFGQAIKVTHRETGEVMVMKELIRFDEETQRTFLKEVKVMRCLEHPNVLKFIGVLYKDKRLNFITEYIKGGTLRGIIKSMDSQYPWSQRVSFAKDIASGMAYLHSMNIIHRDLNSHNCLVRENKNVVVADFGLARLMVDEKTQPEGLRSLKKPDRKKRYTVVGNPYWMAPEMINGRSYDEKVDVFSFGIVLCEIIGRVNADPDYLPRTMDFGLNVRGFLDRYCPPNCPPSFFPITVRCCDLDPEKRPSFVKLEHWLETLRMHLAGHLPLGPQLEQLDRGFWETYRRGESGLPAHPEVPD
Sequence of cAMP-dependent protein kinase catalytic subunit PRKX (P51817 whole entry): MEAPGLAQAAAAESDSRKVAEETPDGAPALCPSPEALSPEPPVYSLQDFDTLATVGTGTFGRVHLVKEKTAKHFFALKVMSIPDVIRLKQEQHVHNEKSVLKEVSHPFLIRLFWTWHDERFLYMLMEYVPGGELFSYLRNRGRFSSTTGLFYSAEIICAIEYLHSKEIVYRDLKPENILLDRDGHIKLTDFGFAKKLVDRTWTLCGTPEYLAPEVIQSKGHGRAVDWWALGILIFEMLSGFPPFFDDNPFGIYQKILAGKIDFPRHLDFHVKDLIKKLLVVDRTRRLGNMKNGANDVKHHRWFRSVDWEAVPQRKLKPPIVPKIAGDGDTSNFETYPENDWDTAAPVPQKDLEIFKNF

For `COc1cc2ncn(-c3cc(OCc4ccccc4C(F)(F)F)c(C(N)=O)s3)c2cc1OC` [GW843682X], the Ki in [1] was > 7.94 µM (inactive); in [2], 5.01 µM (active); in test [3] it was 0.126 µM (active); at LIM domain kinase 1, 7.94 µM (active); in test [4], > 1.58 µM (inactive); in [5], > 10 µM (inactive). The Ki is > 10 µM (inactive) in test [6]; > 7.94 µM (inactive) in [7]; > 5.01 µM (inactive) at Insulin receptor; 1 µM (active) in test [8]; 1 µM (active) in test [9]; > 10 µM (inactive) in test [10]. Moreover, in test [11], the Ki was 2 µM (active).

For `CCCc1nc2c(=O)n(C)c(=O)nc-2n(C)n1`, the IC50 is < 0.98 µM (inactive) in test [12], > 122 µM (inactive) in test [14] and 1.78 µM (active) in test [15]. The AC50 in [13] was 3.39 µM (active); in test [16], 0.513 µM (active).

`CC(=O)c1ccc(NC2=C(N3CCOCC3)C(=O)c3ccccc3C2=O)cc1`: the IC50 in [17] was 11.6 µM (active).

In general, Ki refers to a dissociation constant, usually derived from enzyme kinetics or from competition with a known ligand. Broadly, the IC50 is the concentration needed to halve the response being measured. What is called AC50 is the concentration giving half of the maximal activity seen.
